The test system of data set [1] is kaolin edema of the hind paws of the rat. The data set can be described thus: kaolin edema of the hind paw of the rat, anti-exudative effect, oral. It is filed as in vivo. The following applies: 5 h, male FW 49-rats, oral 30 minutes before edema, 35% reduction of swelling five hours after provocation, graphic extrapolation, read-out: kaolin edema ED35 per os. The procedure:
(§1) The compounds were tested by standard test methods for their anti-exudativeeffects on the kaolin edema and carrageenin edema of the hind paws of the rat and for their acute toxicity by oral administration to rats.
The kaolin edema was induced according to the method of Hillebrecht [Arzneimitted-Forsch. 4, 607 (1954)] by subplantary injection of 0.05 ml of a 10% suspension of kaolin in a 0.85% sodium chloride solution. The measurement of the thickness of the paws was done by using the technique of Doepfner and Cerletti [Int. Arch. Allergy. Immunol. 12, 89 (1958)].
(§2) Male FW 49-rats of an average weight of 120-150 gm were orally treated with the test compounds 30 minutes before inducement of the edema with the aid of an esophageal tube. Five hours after the provocation of the edema the averaged values of the swelling caused in the paws of the rats treated with the compounds were compared with those values measured on blind-treated control animals. By graphic extrapolation the dose leading to a 35% reduction of the swelling (ED35) was calculated from the percent reduction values measured by administration of different doses.

For data set [2], the system named is carrageenin edema of the hind paws of the rat. Briefly: carrageenin edema of the hind paw of the rat, anti-exudative effect, oral. It is filed as in vivo. The following applies: 3 h, FW 49-rats, oral 60 minutes before edema, 35% reduction of swelling three hours after provocation, graphic extrapolation, read-out: carrageenin edema ED35 per os. The procedure: as §1, §2
The provocation of the carrageenin edema was effected according to the method of Winter et al [Proc. Soc. exp. Biol. Med. 111, 544 (1962)] by subplantary injection of 0.05 ml of a 1% solution of carrageenin in a 0.85% solution of sodium chloride. The test compounds were orally administered 60 minutes before the provocation of the edema.
For the calculation of the reductive effect on the edema the values measured three hours after the provocation of the edema were used. All the other details were the same as described above in the case of the kaolin edema.

In data set [3] the test system is kaolin and carrageenin edema. The data set can be described thus: antiexudative effect, average of kaolin and carrageenin edema tests. It is filed as in vivo. The following applies: Rattus norvegicus, po; arithmetically averaged value from ED35 kaolin edema and ED35 carrageenin edema. An excerpt:
*arithmetically averaged value from ED35 kaolin edema and ED35
A general note: In the carrageenan paw model, swelling and tenderness develop within hours.

Data set [4] in a line: acute toxicity in the rat, oral. The following applies: in vivo, male and female FW 49-rats (1:1), oral as trituration in tylose, 14 days, Litchfield and Wilcoxon, 95% confidence limits, read-out: acute toxicity in the rat LD50 per os. As to the method: as §1
After oral administration to male and female FW 49-rats (ratio 1:1) having an average body weight of 135 gm, the acute toxicity (LD50 ) was determined. The substances were administered orally as trituration in tylose.
The calculation of the LD50 -values was effected, as far as possible, according to the method of Litchfield and Wilcoxon, based on the percentage of animals which died within 14 days after administration of the different doses.

A short description of the next data set: in vivo. The following applies: rat, po. The procedure:
The therapeutic index, as a measure for the therapeutic usefulness, was calculated by forming the quotient of the LD50 -value and the ED35 -value derived from the tests for anti-exudative activity against the kaolin and carrageenin edema.

ED35, LD50 and selectivity ratio data for 1 molecule are collected here from patent US3987197A, “3-(2'-Fluoro-4-biphenylyl)-butyric acid and salts thereof” (Boehringer Ingelheim GmbH, priority 1972, dated 1976).

The LD50 is the dose expected to kill half of the subjects tested.

On to `CC(CC(=O)O)c1ccc(-c2ccccc2F)cc1` (racemic) [A, 3-(2'-fluoro-4-biphenylyl)-butyric acid], for which the ED35 was 19 mg/kg in data set [1], 10.5 mg/kg in data set [2] and 14.8 mg/kg in data set [3]. Further, the LD50 at 336 h in data set [4] was 540 mg/kg. The selectivity ratio in “in vivo” worked out at 36.5.
